Assay results from patent US20030119812A1, “Method for decreasing capillary permeability in the retina” (priority 2001, published 2003).

Tested on: BRB breakdown in mice exposed to vascular endothelial growth factor (VEGF)
Test: BRB breakdown quantitated with [3H]-mannitol tracer in mice given intravitreal VEGF
Type: in vivo, C57B/J6 mice
Source text: Intraperitoneally administered radiolabeled tracer can be used to quantitate BRB breakdown in mice exposed to vascular endothelial growth factor (VEGF). This technique is particularly advantageous with neonatal mice because of the technical difficulty involved with intravascular injections. Also, the comparison of retinas from injected and control eyes to tissues without a blood-tissue barrier corrects for variations in the amount of isotope injected or absorbed into the circulation.
Ten six- to seven-week-old C57B/J6 mice (Jackson Labs, Bar Harbor, Me.) are weighed to determine the proper dosage of anesthesia and tracer required. Mice are anesthetized with a solution containing 25 mg/kg ketamine (Ketaset; Fort Dodge Animal Health, Fort Dodge, Iowa) and 4 mg/kg rompun (Tranquived; Vedco, St. Joseph, Mo.) diluted 1:10 in saline prior to injection. Five mice are subjected to gavage with 50 mg/kg N-benzoyl staurosporine for three days prior to intravitreal administration of VEGF; the other five mice are subjected to gavage with vehicle.
Tropicamide (1%) is used to dilate the pupils of anesthetized mice. Under a dissecting microscope, a Harvard injector (PLI 100) is used with a glass pipet pulled to a diameter of 13-20 μm to inject 1 μl of saline containing VEGF (R&D Systems, Minneapolis, Minn.). The eyes are entered posterior to the limbus, directing the pipet toward the optic nerve. The solution is then deposited just in front of the retina without inflicting any damage to the lens. […]
One ml NCSII (Amersham, Chicago, Ill.) solubilizing solution is added to each vial and the vials are incubated overnight in a 50° C. water bath. […] The specimens are counted on a Wallac 1409 Liquid Scintillation Counter (Gaithersburg, :Md.).
The counts per mg tissue are determined for treated (with N-benzoyl staurosporine) and untreated retina, lung, and kidney. Ratios of these values for treated or untreated retina/lung or kidney and for lung/kidney are calculated. […]

SMILES: CO[C@@H]1[C@H](N(C)C(=O)c2ccccc2)C[C@H]2O[C@]1(C)n1c3ccccc3c3c4c(c5c6ccccc6n2c5c31)C(=O)NC4 [N-benzoyl staurosporine]
- radioactivity in the retinas (leakage of radioactive tracer out of the retinal blood vessels) (50 mg/kg N-benzoyl staurosporine by gavage versus vehicle gavage, before intravitreal VEGF): significantly less radioactivity
- retina/kidney ratio (50 mg/kg by gavage for three days before intravitreal VEGF 10^-6 M, [3H]-mannitol at 6 hours, VEGF/vehicle 0.6806±0.1060, Student-t value 0.0201): 0.3881±0.0436
- retina/lung ratio (cpm per mg of retina/cpm per mg of lung) (50 mg/kg by gavage for three days before intravitreal VEGF 10^-6 M, [3H]-mannitol at 6 hours, VEGF/vehicle 0.8785±0.0946, Student-t value 0.0467): 0.6326±0.0656
